Results on 1 molecule are retold here after US12331051B2 (priority 2021, dated 2025).

Data set [1] addresses ADRb1 (β1 adrenergic receptor) (Homo sapiens, UniProt P08588). Kind of data set: BRET-based G protein dissociation assay. The data set is classed as cell-based. Background: BRET reads energy transfer from a luciferase to a nearby fluorophore.
The target in data set [2] is ADRb2 (β2 adrenergic receptor) (Homo sapiens, UniProt P07550). Put plainly: BRET-based G protein dissociation assay. The data set is classed as cell-based.
The target in the next data set is T1, 5-HT1F (Homo sapiens, UniProt P30939).
T1 construct: expressed in transfected cells; host or cells: HEK-293
T1 sequence (P30939 1-366): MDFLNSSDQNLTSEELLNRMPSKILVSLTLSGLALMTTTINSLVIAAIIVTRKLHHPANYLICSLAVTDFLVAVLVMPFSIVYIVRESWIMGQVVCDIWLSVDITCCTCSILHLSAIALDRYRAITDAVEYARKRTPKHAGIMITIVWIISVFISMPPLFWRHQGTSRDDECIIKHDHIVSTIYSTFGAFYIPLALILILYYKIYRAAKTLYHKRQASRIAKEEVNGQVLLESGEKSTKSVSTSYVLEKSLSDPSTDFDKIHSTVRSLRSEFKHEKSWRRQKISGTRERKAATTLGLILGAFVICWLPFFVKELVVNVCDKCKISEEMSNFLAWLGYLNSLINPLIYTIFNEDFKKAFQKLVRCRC
Put plainly: Functional assay (cAMP). The class given is cell-based. The protocol: (§1) Neuro-receptor binding and functional effects of the “E559 polymorph” was examined by analyzing binding affinity [Ki (nM)], functional agonist activity [EC50 (nM)], and functional antagonist activity [IC50 (nM)] against a panel of key receptors in neurophysiological disorders. Binding and functional assays were performed at “E559 polymorph” concentrations of 0.0003, 0.003, 0.01, 0.03, 0.1, 0.3, 1, and 10 μM. In binding assays, cell membrane homogenates, expressing each receptor target, were incubated with the corresponding radio-ligand in absence or presence of several concentration of the “E559 polymorph” compound. The measurement of binding affinity of the “E559 polymorph” is represented in TABLE XIII by Ki (nM) which was calculated as percent inhibition of the binding of a radioactively labeled reference ligand at each receptor. In functional assays the HEK-293 cells expressing each receptor target were suspended in buffer and distribute in microplates and incubated for 30 minutes at room temperature or 37° C. in the presence of buffer alone (basal control), the reference agonist or antagonist, or the “E559 polymorph. Following incubation, the cells were lysed and the appropriate fluorescent probe (Ca2+ flux, cAMP, or IP1) were added for 60 minutes to measure the fluorescence transfer at the appropriate wavelength using a microplate reader. The cellular agonist effect (EC50) was calculated as a percent of control response to a known reference agonist and the cellular antagonist effect (IC50) was calculated as a percent inhibition of control reference agonist response for each receptor.
(§2) The functional agonist activity [EC50 (nM), Emax], and functional antagonist activity [IC50 (nM)] of the 5R:8S stereoisomer of the “E559 polymorph” (5R:8S E558) was compared with the “E559 polymorph” (a 5R:8R stereoisomer) at selected serotonin receptors. The assays were performed as described in Example 6.

Data set [3] concerns cultured primary rat neurons. Put plainly: Cell viability, Neurite Outgrowth Staining Kit. The class given is cell-based. Conditions: DIV 6, all tested concentrations. On the procedure:
The ability of the “E559 polymorph” to induce neural plasticity was evaluated in vitro. In vitro dendritogenesis and spinogenesis assays were conducted using primary rat embryonic cortical neurons. Briefly, cultured primary cortical neurons (rat) were treated at day in vitro (DIV) 3 for 3 hours with increasing concentrations (1, 10 and 100 nM, 1 and […]) of the “E559 polymorph” and morphological changes in dendritic arbor complexity (dendritogenesis) were assessed at DIV6 by immunofluorescent staining of fixed neurons with microtubule-associated protein 2 (MAP2, a microtubule marker), F-actin (cytoskeletal marker), and phalloidin (actin filament marker) followed by fluorescent microscopy and Sholl analysis of neurons' images. […] The spine density assessments (spinogenesis) were made on DIV 18. The cell viability assessments were made on DIV 6 by using the Neurite Outgrowth Staining Kit which includes fluorescent probes for dead and live neuronal cells. Ketamine was used as a comparator and positive control. Ketamine is known to induce dendritogenesis and its effects on synaptic plasticity are believed to mediate its antidepressant effects (Aguilar-Valles et al., Nature, 2021, 590, p315-319). Representative images of MAP2 stained rat cortical neurons treated with vehicle (no drug control) or with “E559 polymorph” is shown in FIG. 18A.

For another data set, the system named is stress naive mice. Put plainly: Forced swim test (FST), stress naive mice. The data set is classed as in vivo, mouse. The protocol: In brief, stress naive mice were treated (IP injection) with either saline (control) or single dose of the “E559 polymorph” at 0.3, 1, or 3 mg/kg dose levels and were evaluated 24 hours (OFT) and […] after treatment. The OFT was performed described in Example 13. The FST was performed as previously described in (Aguilar-Valles et al., Nature, 2021, 590, p315-319). Briefly FST was performed 24-hour post treatment by placing the mice (one by one) in a 4-liter wide-mouthed flask of 35° C. water. Mice activities were recorded for 6 minutes and assessed for total time the animal remains immobile, a sign of depressive-like behavior. FIG. 25A depicts the study design where female/male mice (n=10/group/sex) were treated by IP injection with the “E559 polymorph” or vehicle (saline) followed by open field and force swim test 24 hours post treatment. FIGS. 25B and 25E represent the total distance travelled in the open field test 24 hours after vehicle or the “E559 polymorph” in female and male mice, respectively. FIGS. 25C and 25F represent the time in the center of the open field by female and male mice, respectively. FIGS. 25D and 25G represent the immobility time during the last 4 minutes of the forced swim test in female and male mice, respectively. Horizontal lines represent the mean±standard error of the mean (S.E.M.) and asterisks indicate statistical significances.

A further data set in a line: DVS hygroscopicity. The data set is classed as physicochemical. Conditions: for DVS (hold at 75% RH) mass increase: crude material, 75% relative humidity, ~5 hr run time.
Data set [4] has as its target T2, D1 dopamine receptor (Homo sapiens, UniProt P21728). Kind of data set: Radioligand binding, cell membrane homogenates. Set-up: expressed in transfected cells; host or cells: HEK-293. On the procedure: (§3) Neuro-receptor binding and functional effects of the “E559 polymorph” was examined by analyzing binding affinity [Ki (nM)], functional agonist activity [EC50 (nM)], and functional antagonist activity [IC50 (nM)] against a panel of key receptors in neurophysiological disorders. Binding and functional assays were performed at “E559 polymorph” concentrations of 0.0003, 0.003, 0.01, 0.03, 0.1, 0.3, 1, and 10 μM. In binding assays, cell membrane homogenates, expressing each receptor target, were incubated with the corresponding radio-ligand in absence or presence of several concentration of the “E559 polymorph” compound. The measurement of binding affinity of the “E559 polymorph” is represented in TABLE XIII by Ki (nM) which was calculated as percent inhibition of the binding of a radioactively labeled reference ligand at each receptor. […] Following incubation, the cells were lysed and the appropriate fluorescent probe (Ca2+ flux, cAMP, or IP1) were added for 60 minutes to measure the fluorescence transfer at the appropriate wavelength using a microplate reader. The cellular agonist effect (EC50) was calculated as a percent of control response to a known reference agonist and the cellular antagonist effect (IC50) was calculated as a percent inhibition of control reference agonist response for each receptor.

Data set [5] concerns the target T2, D1 dopamine receptor. Put plainly: Functional assay in HEK-293 cells (cAMP). The class given is cell-based. Set-up: expressed in transfected cells; host or cells: HEK-293. On the procedure:
as §3

Another data set concerns the target 5-HT6 (Homo sapiens, UniProt P50406). Kind of data set: Functional assay (cAMP). The class given is cell-based. Further details: expressed in transfected cells; host or cells: HEK-293. The protocol: as §1, §2
Where [6] appears, read: cAMP, ligand 5-HT, read-out: Functional Assay (agonist) Emax.

Bounds are passed on as bounds.

T2 sequence (P21728 whole entry): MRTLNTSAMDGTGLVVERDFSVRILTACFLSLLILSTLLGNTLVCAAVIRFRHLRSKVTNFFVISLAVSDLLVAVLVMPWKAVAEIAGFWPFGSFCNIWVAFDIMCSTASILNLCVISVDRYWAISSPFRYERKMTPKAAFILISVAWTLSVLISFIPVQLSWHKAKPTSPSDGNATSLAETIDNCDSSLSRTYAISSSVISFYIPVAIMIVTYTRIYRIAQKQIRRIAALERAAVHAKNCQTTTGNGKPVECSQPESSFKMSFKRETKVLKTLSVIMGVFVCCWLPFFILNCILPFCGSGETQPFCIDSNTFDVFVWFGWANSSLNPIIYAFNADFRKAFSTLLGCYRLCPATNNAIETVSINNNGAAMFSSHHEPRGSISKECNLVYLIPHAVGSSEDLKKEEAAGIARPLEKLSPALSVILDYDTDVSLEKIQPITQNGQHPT
Chain of ADRb2 (β2 adrenergic receptor) (P07550 whole entry): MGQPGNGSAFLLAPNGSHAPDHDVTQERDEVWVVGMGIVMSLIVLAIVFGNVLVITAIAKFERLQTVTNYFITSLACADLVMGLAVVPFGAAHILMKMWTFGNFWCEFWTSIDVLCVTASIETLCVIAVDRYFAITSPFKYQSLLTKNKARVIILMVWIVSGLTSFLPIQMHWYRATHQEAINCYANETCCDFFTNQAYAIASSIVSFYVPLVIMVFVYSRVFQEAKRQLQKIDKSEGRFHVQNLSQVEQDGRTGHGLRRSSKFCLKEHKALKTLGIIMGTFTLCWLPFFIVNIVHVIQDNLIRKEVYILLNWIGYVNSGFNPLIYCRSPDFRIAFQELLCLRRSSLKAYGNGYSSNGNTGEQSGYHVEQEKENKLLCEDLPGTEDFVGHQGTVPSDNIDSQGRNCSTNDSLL
Chain of ADRb1 (β1 adrenergic receptor) (P08588 whole entry): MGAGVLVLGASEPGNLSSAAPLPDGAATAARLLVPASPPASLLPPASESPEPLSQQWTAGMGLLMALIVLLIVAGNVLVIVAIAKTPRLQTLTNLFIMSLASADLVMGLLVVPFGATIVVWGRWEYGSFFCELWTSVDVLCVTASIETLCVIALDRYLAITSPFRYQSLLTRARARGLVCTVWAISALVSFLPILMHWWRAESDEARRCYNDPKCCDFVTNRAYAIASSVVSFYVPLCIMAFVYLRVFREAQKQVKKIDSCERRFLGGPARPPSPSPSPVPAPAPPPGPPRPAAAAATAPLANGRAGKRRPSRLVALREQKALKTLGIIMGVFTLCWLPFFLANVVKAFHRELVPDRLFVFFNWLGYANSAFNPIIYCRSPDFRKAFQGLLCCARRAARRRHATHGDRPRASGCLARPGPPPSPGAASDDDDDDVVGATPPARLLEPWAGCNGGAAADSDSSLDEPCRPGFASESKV
Chain of 5-HT6 (P50406 whole entry): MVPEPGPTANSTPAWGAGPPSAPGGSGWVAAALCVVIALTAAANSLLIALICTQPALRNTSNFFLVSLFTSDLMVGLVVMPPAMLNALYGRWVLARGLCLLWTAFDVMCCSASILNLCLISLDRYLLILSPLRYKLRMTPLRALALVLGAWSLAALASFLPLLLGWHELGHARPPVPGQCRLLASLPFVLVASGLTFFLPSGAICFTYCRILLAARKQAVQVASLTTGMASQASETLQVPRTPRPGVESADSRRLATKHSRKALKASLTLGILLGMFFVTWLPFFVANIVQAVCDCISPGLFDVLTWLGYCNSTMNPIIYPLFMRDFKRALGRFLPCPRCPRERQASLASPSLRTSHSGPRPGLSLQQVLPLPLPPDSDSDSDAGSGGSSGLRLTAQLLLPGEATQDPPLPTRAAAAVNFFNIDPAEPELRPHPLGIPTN

As usually defined, the EC50 is the concentration needed to bring the measured effect to its halfway point. The Emax is the size of the effect at its maximum, as opposed to the concentration needed. As a reminder, the Ki is the equilibrium dissociation constant of an inhibitor or competing ligand from its target. The term IC50 denotes the concentration needed to halve the response being measured. Read a low IC50 as inhibition by little substance. In the case of `CCN(CC)C(=O)[C@@H]1C=C2c3cccc4[nH]c(Br)c(c34)C[C@H]2N(C)C1` [E559, (5R, 8R)-2-Bromo-9,10-didehydro-N,N-diethyl-6-methylergoline-8-carboxamide hemi-D-tartrate], the EC50 in data set [1] is > 10000 nM; in data set [2], 4.26 nM; on 5-HT1F, 13.8 nM; on D1 dopamine receptor [5] it was > 10000 nM; on 5-HT6 it was 0.5 nM. Further, the Kb in data set [1] came to 95.2 nM; in data set [2], 17.6 nM. The Emax at 5-HT1F (setting [6]) came out at 92.6%; at 5-HT6 (setting [6]), 80.1%. In [3], the “viability of cultured primary rat neurons (cytotoxic activity)” value is reported as “no cytotoxic activity was observed at all tested concentrations”. Moreover, the decrease in immobility with stress naive mice (female mice, IP 1 mg/kg) came to 35.18 ± 10.03 s; in the data set with stress naive mice (male mice, IP 1 mg/kg), 27.27 ± 8.226 s; with stress naive mice (male mice, IP 3 mg/kg), 31.36 ± 8.226 s. In the data set “DVS hygroscopicity” (90% RH exposure, ~24 hr run time, listed as D-Tartrate), the “DVS (0-90-0 2 cycles) max water absorbed” value is given as “absorbed max 7% water”. In addition, the “DVS (hold at 75% RH) mass increase” value in “DVS hygroscopicity” is recorded as “about 3.4%”; in “DVS hygroscopicity” (listed as D-Tartrate) it was 3.4% mass increase. The molecule also had an inhibitory constant (Ki) at D1 dopamine receptor [4] of 25 nM. At D1 dopamine receptor [5], this molecule returned an IC50 of 820 nM.
